The source made the active and inactive calls. The rule behind the calls is not given here.

The test system of data set [1] is Huh-7. Briefly: Inhibition of oleic acid-induced triglyceride accumulation in human HuH7 cells after 24 hrs. Type of data set: functional, cell-based.
For data set [2], the system named is Huh-7. The experiment in a line: Inhibition of oleic acid-induced triglyceride accumulation in human HuH7 cells up to 50 uM after 24 hrs by Oil Red O staining based assay. The format is functional, cell-based.
Data set [3] relates to Huh-7. Briefly: Cytotoxicity against human HuH7 cells after 24 hrs by LDH release assay. Type of data set: cell-based. To be noted: huh-7, 24 h.

For `CC(=O)C(C)(C)/C=C/[C@@H](C)[C@@]1(O)C(=O)[C@H]2[C@@H](C=C[C@@H]2C)[C@H](C)[C@@H]1O`, the inhibition entry with Huh-7 [1] was “Dose-dependent effect”. The inhibition entry with Huh-7 [2] is “Active”. In the data set with Huh-7 [3], the Activity entry is “Non-Toxic”.

As for `CC(=O)C(C)(C)/C=C/[C@H](C)[C@@]1(O)C(=O)[C@H]2[C@@H](C=C[C@@H]2C)[C@H](C)[C@@H]1O`, the inhibition result with Huh-7 [1] was “Dose-dependent effect”. The inhibition entry with Huh-7 [2] was “Active”. Besides, in the data set with Huh-7 [3], the Activity result is listed as “Non-Toxic”.
